≈ marks a conversion by molar mass, not a printed value. Calls of active or inactive are those of the source. The rule behind the calls is not given here.
What was measured:
[1] = Ratio of MIC for Escherichia coli ATCC 25922 to MIC for Escherichia coli NR698 harboring imp gene deletion mutant; format: functional
Escherichia coli [2] = assay: Antibacterial activity against Escherichia coli ATCC 25922 by alamar blue reagent based micro dilution broth assay; format: functional
Escherichia coli [3] = assay: Antibacterial activity against Escherichia coli JW0451 harboring AcrB gene deletion mutant by alamar blue reagent based micro dilution broth assay; format: functional, organism-based
Escherichia coli [4] = assay: Antibacterial activity against Escherichia coli harboring macB gene deletion mutant by alamar blue reagent based micro dilution broth assay; format: functional, organism-based
HepG2 [5] = assay: Cytotoxicity against human HepG2 cells at 100 uM after 4 hrs by alamar blue assay; format: cell-based; conditions: hepg2, 4 h
Escherichia coli [6] = assay: Antibacterial activity against Escherichia coli NR698 harboring imp gene deletion mutant by alamar blue reagent based micro dilution broth assay; format: functional
Escherichia coli [7] = assay: Antibacterial activity against Escherichia coli harboring emrB gene deletion mutant by alamar blue reagent based micro dilution broth assay; format: functional, organism-based
[8] = Cytotoxicity against HDF at 100 uM after 4 hrs by alamar blue assay; conditions: human
Staphylococcus aureus [9] = assay: microbe, parasite or virus in culture; conditions: ATCC 43300, 18 h
Escherichia coli [10] = assay: Antibacterial activity against Escherichia coli harboring acrF gene deletion mutant by alamar blue reagent based micro dilution broth assay; format: functional, organism-based
[11] = Cytotoxicity against human MCF10A cells after 4 hrs by alamar blue assay; format: cell-based; conditions: MCF-10A
Staphylococcus aureus [12] = assay: Bactericidal activity against Staphylococcus aureus ATCC 43300; format: functional, organism-based
Escherichia coli [13] = assay: microbe, parasite or virus in culture
[14] = Therapeutic index, ratio of IC50 for human MCF10A cells to MIC for Staphylococcus aureus ATCC 43300; format: cell-based, MCF-10A; conditions: read-out: TI
Cytochrome P450 2D6 = Cytochrome P450 2D6 (Homo sapiens, UniProt P10635); assay: Inhibition of human CYP2D6 using AMMC as substrate assessed as reduction in 3-[-2-(N,Ndiethylamino)ethyl]-7-hydroxy-4-methylcoumarin hydrochloride metabolite formation incubated for 30 mins by high throughput assay; format: ADME; conditions: read-out: INH
Sequence of Cytochrome P450 2D6 (P10635 whole entry): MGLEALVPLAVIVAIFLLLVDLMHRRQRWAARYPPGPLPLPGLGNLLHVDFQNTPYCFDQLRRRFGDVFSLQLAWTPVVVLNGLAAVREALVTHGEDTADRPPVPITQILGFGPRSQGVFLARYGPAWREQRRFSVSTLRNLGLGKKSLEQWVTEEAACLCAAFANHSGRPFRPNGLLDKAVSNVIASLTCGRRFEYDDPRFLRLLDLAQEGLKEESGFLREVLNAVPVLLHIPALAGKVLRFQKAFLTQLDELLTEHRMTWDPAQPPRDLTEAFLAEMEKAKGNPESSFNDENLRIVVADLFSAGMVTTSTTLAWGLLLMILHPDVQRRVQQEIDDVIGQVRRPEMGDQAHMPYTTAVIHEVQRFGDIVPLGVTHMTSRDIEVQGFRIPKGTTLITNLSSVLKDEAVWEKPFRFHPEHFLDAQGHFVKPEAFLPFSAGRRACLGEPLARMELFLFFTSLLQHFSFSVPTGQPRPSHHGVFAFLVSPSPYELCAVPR

[15] = Terminal half life in mouse liver microsomes at 0.5 ug/ml in presence of NADPH by UPLC analysis; format: ADME; conditions: read-out: beta t1/2
[16] = Therapeutic index, ratio of IC50 for HDF to MIC for Staphylococcus aureus ATCC 43300; conditions: human, read-out: TI
[17] = Therapeutic index, ratio of IC50 for human MCF10 cells to MIC for Staphylococcus aureus ATCC 43300; format: cell-based; conditions: read-out: TI
Cytochrome P450 3A4 = Cytochrome P450 3A4 (Homo sapiens, UniProt P08684); assay: Inhibition of human CYP3A4 using BQ as substrate assessed as reduction in 7-hydroxyquinoline metabolite formation incubated for 30 mins by high throughput assay; format: ADME; conditions: read-out: INH
Sequence of Cytochrome P450 3A4 (P08684 whole entry): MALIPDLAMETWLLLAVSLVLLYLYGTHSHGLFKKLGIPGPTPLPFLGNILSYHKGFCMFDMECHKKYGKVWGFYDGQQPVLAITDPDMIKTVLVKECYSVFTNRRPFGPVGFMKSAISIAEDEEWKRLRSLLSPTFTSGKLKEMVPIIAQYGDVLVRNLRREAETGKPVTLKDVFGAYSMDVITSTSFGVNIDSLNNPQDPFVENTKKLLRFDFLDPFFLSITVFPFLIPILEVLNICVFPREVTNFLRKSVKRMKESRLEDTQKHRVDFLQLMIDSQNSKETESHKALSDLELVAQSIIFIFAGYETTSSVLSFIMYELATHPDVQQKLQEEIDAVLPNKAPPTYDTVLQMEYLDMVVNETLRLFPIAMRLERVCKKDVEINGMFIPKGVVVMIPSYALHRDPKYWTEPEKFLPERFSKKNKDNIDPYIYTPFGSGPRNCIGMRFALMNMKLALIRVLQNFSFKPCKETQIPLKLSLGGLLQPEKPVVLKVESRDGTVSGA

HepG2 [18] = assay: Cytotoxicity against human HepG2 cells after 4 hrs by alamar blue assay; format: cell-based; conditions: HepG2, 4 h
[19] = Cytotoxicity against HDF after 4 hrs by alamar blue assay; conditions: Homo sapiens
[20] = Primary phase half life in mouse liver microsomes at 0.5 ug/ml in presence of NADPH by UPLC analysis; format: ADME; conditions: read-out: alphat1/2
[21] = Therapeutic index, ratio of IC50 for human HepG2 cells to MIC for Staphylococcus aureus ATCC 43300; format: cell-based; conditions: read-out: TI
Escherichia coli [22] = assay: Antibacterial activity against Escherichia coli harboring ompC gene deletion mutant by alamar blue reagent based micro dilution broth assay; format: functional
Staphylococcus aureus [23] = assay: Antibacterial activity against methicillin-resistant Staphylococcus aureus by agar dilution method; format: functional
Escherichia coli [24] = assay: Antibacterial activity against Escherichia coli W4573 after 8 hrs; format: functional; conditions: W4573, 8 h
Escherichia coli [25] = assay: Antibacterial activity against Escherichia coli harboring efflux pump deletion mutant after 8 hrs; format: functional
Escherichia coli [26] = assay: Antibacterial activity against Escherichia coli harboring ompF gene deletion mutant by alamar blue reagent based micro dilution broth assay; format: functional

| Compound | Ratio [1] | MIC (Escherichia coli [2]) | Activity (Escherichia coli [3]) | Activity (Escherichia coli [4]) | Activity (HepG2 [5]) | MIC (Escherichia coli [6]) | Activity (Escherichia coli [7]) | Activity [8] | MIC (Staphylococcus aureus [9]) | Activity (Escherichia coli [10]) | IC50 [11] | Activity (Staphylococcus aureus [12]) | also measured |
| --- | --- | --- | --- | --- | --- | --- | --- | --- | --- | --- | --- | --- | --- |
| CCc1nc(N)nc(N)c1C#CCc1cc(-c2ccccc2C(=O)O)ccc1OC | 2000 | > 32 µg/mL | Active | Active | Non-toxic | 20 µg/mL (≈ 49.7 µM) | Active | Non-toxic | > 20 µg/mL | Active | – | – | – |
| CCc1nc(N)nc(N)c1C#CCc1cc(OC)cc(-c2ccc(C(=O)O)cc2)c1.O=C(O)C(F)(F)F | – | > 20 µg/mL | Active | Active | Non-toxic | 0.0049 µg/mL | Active | Non-toxic | 0.0195 µg/mL | Active | > 100 µM | Active | – |
| CC(=O)O.CCc1nc(N)nc(N)c1C#C[C@@H](C)c1cc(-c2ccc(C(=O)O)cc2)ccc1OC | – | 20 µg/mL | Active | Active | Non-toxic | 0.0012 µg/mL | Active | Non-toxic | 0.0195 µg/mL | Active | > 100 µM | – | – |
| CCc1nc(N)nc(N)c1C#CCc1cc(-c2cccc(C(=O)O)c2)ccc1OC.O=C(O)C(F)(F)F | 2000 | > 20 µg/mL | Active | Active | Non-toxic | 0.0391 µg/mL | Active | Non-toxic | 0.625 µg/mL | Active | – | – | – |
| CCc1nc(N)nc(N)c1C#C[C@@H](C)c1cc(OC)cc(-c2ccc(C(=O)O)cc2)c1 | – | 10 µg/mL (≈ 24 µM) | Active | Active | Non-toxic | 0.0024 µg/mL (≈ 0.00576 µM) | Active | Non-toxic | 0.0098 µg/mL (≈ 0.0235 µM) | Active | > 100 µM | Active | – |
| CCc1nc(N)nc(N)c1C#C[C@H](C)c1cc(OC)cc(-c2ccc(C(=O)O)cc2)c1 | – | 10 µg/mL (≈ 24 µM) | Active | Active | Non-toxic | 0.0024 µg/mL (≈ 0.00576 µM) | Active | Non-toxic | 0.0098 µg/mL (≈ 0.0235 µM) | Active | > 100 µM | Active | – |
| CC(=O)O.CCc1nc(N)nc(N)c1C#C[C@H](C)c1cc(-c2ccc(C(=O)O)cc2)ccc1OC | – | > 20 µg/mL | Active | Active | Non-toxic | 0.0391 µg/mL | Active | Non-toxic | 0.625 µg/mL | Active | > 100 µM | – | – |
| COc1cc(Cc2cnc(N)nc2N)cc(OC)c1OC [TRIMETHOPRIM] | – | 0.312 µg/mL (≈ 1.08 µM) | – | – | – | 0.0098 µg/mL (≈ 0.0338 µM) | – | – | – | – | – | – | MIC (Escherichia coli [13]): 0.312 µg/mL (≈ 1.08 µM) |
| CCc1nc(N)nc(N)c1C#CCc1cc(-c2ccc(C(=O)O)cc2)ccc1OC | 2000 | > 20 µg/mL | Active | Active | – | 0.0098 µg/mL (≈ 0.0244 µM) | Active | – | 0.0195 µg/mL (≈ 0.0485 µM) | Active | > 100 µM | – | selectivity ratio [14]: > 500000; IC50 (Cytochrome P450 2D6): > 50 µM; half-life at 0.5 ug/ml [15]: 1.45 h; selectivity ratio [16]: > 500000; selectivity ratio [17]: > 500000; IC50 (Cytochrome P450 3A4): > 50 µM; IC50 (HepG2 [18]): > 500 µM; IC50 [19]: > 500 µM; half-life at 0.5 ug/ml [20]: 1.65 h; selectivity ratio [21]: > 500000 |
| CN(Cc1cnc2nc(N)nc(N)c2n1)c1ccc(C(=O)N[C@@H](CCC(=O)O)C(=O)O)cc1 [METHOTREXATE] | – | > 40 µg/mL | – | – | – | 40 µg/mL (≈ 88 µM) | – | – | > 40 µg/mL | – | – | – | MIC (Escherichia coli [22]): ≥ 40 µg/mL; MIC50 (Staphylococcus aureus [23]): 20 µg/mL (≈ 44 µM); MIC90 (Staphylococcus aureus [23]): 100 µg/mL (≈ 220 µM); MIC (Escherichia coli [24]): 1000 µM (≈ 454 µg/mL); MIC (Escherichia coli [25]): 64 µM (≈ 29.1 µg/mL); MIC (Escherichia coli [26]): ≥ 40 µg/mL |

— ChEMBL document CHEMBL3826924, “Charged Nonclassical Antifolates with Activity Against Gram-Positive and Gram-Negative Pathogens” (ACS Med Chem Lett, 2016)
